In ChEMBL document CHEMBL1158848, “Synthesis and separation of potential anticancer active dihalocephalomannine diastereomers from extracts of Taxus yunnanensis” (1998) one finds GI50, LC50 (50% lethal concentration) and TGI data, which are given here for 3 compounds.

The test in a line: Cytotoxicity against human NCI60 cells. In kind it is functional.

Turning to `CC(=O)O[C@H]1C(=O)[C@@]2(C)[C@H]([C@H](OC(=O)c3ccccc3)[C@]3(O)C[C@H](OC(=O)[C@H](O)[C@@H](NC(=O)[C@@](C)(Cl)[C@H](C)Cl)c4ccccc4)C(C)=C1C3(C)C)[C@]1(OC(C)=O)CO[C@@H]1C[C@@H]2O`, the GI50 was found to be 210 nM, the LC50 (50% lethal concentration) was 32 µM and the TGI was found to be 6.3 µM.

Turning to `CC(=O)O[C@H]1C(=O)[C@@]2(C)[C@H]([C@H](OC(=O)c3ccccc3)[C@]3(O)C[C@H](OC(=O)[C@H](O)[C@@H](NC(=O)[C@](C)(Cl)[C@@H](C)Cl)c4ccccc4)C(C)=C1C3(C)C)[C@]1(OC(C)=O)CO[C@@H]1C[C@@H]2O`, the GI50 worked out at 140 nM, the LC50 (50% lethal concentration) is 29 µM and total growth inhibition (TGI) required 4.2 µM.

The compound `CC(=O)O[C@H]1C(=O)[C@@]2(C)[C@H]([C@H](OC(=O)c3ccccc3)[C@]3(O)C[C@H](OC(=O)[C@H](O)[C@@H](NC(=O)c4ccccc4)c4ccccc4)C(C)=C1C3(C)C)[C@]1(OC(C)=O)CO[C@@H]1C[C@@H]2O` [PACLITAXEL] gave a GI50 of 0.65 nM and a TGI of 0.15 µM.

In general, GI50 refers to the concentration that inhibits growth by half. A high value points to less potent growth inhibition. As usually defined, the TGI is the concentration giving total growth inhibition.
